Test results taken from patent publication US9656963B2 (BRISTOL-MYERS SQUIBB COMPANY, priority 2012, dated 2017).

Target: T1, hGPR40 (Homo sapiens, UniProt O14842)
T1 construct: 3x FLAG; expressed in transfected cells
Test: FDSS-Based Intracellular Calcium Assay
Assay type: cell-based
Conditions: cells expressing GPR40, intracellular Ca2+ response
Procedure: FDSS-Based Intracellular Calcium Assay
Cell lines expressing GPR40 are generated using the pDEST 3× flag gene expression system and are cultured in culture medium comprising the following components: F12 (Gibco #11765), 10% lipid deprived fetal bovine serum, 250 μg/ml zeocin and 500 μg/ml G418. To conduct the fluorescent imaging plate reader (FLIPR)-based calcium flux assay to measure intracellular Ca^2+ response, cells expressing GPR40 are plated on 384 well plates (BD Biocoat #356697) at a density of 20,000 cells/20 μL medium per well in phenol red and serum-free DMEM (Gibco #21063-029) and incubated overnight. […] Compounds are dissolved in DMSO and diluted to desired concentrations with assay buffer and added to the cells as 3x solution (20 μL per well). Run fluorescence/luminescence reader FDSS (Hamamatsu) to read intracellular Ca^2+ response.

T1 sequence (O14842 whole entry): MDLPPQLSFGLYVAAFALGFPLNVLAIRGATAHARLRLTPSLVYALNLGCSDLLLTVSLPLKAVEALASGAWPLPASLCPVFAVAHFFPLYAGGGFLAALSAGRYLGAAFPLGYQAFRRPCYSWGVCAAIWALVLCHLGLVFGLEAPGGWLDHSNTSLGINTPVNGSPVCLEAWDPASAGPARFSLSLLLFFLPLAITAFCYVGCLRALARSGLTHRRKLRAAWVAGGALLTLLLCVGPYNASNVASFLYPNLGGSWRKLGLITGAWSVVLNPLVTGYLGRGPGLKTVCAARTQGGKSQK

EC50 [nM] | Structure (SMILES)
920 | COCC1C(C(F)(F)F)=NN(c2ccc(Cc3ccc(-c4cc(OC)ccc4F)cc3C)cc2)C1CC(=O)O (single isomer, unassigned) [Example 48, Isomer 2, 2-(1-(4-((2′-fluoro-5′-methoxy-3-methylbiphenyl-4-yl)methyl)phenyl)-4-(methoxymethyl)-3-(trifluoromethyl)-4,5-dihydro-1H-pyrazol-5-yl)acetic acid]
> 16600 | COc1ccc(F)c(-c2ccc(Cc3ccc(N4N=C(c5ncccn5)C(C)C4CC(=O)O)cc3)c(C)c2)c1 (single isomer, unassigned) [Example 61 isomer 1]
560 | COc1ccc(F)c(-c2ccc(Cc3ccc(N4N=C(C#N)CC4CC(=O)O)cc3)c(C)c2)c1 (single isomer, unassigned) [Example 34, Isomer 2, 2-(3-cyano-1-(4-((2′-fluoro-5′-methoxy-3-methylbiphenyl-4-yl)methyl)phenyl)-4,5-dihydro-1H-pyrazol-5-yl)acetic acid]
160 | Cc1cc(Br)ccc1Oc1ccc(N2N=C(C(F)(F)F)CC2CC(=O)O)cc1 (racemic) [Example 13, 2-(1-(4-(4-bromo-2-methylphenoxy)phenyl)-3-(trifluoromethyl)-4,5-dihydro-1H-pyrazol-5-yl)acetic acid]
13 | COc1ccc(F)c(-c2ccc(Cc3ccc(N4N=C(c5ccc(Cl)cc5)[C@@H](C)[C@@H]4CC(=O)O)cc3)c(C)c2)c1 (single isomer, unassigned) [Example 66, Isomer 1]
63 | COc1ccc(F)c(-c2ccc(Cc3ccc(N4N=C(c5ccccn5)C(C)C4CC(=O)O)cc3)c(C)c2)c1 (single isomer, unassigned) [example 62, isomer 2, 2-(1-(4-((2′-fluoro-5′-methoxy-3-methylbiphenyl-4-yl)methyl)phenyl)-4-methyl-3-(pyridin-2-yl)-4,5-dihydro-1H-pyrazol-5-yl)acetic acid]
1600 | COc1ccc(F)c(-c2ccc(Cc3ccc(N4N=C(c5ccccn5)C(C)C4CC(=O)O)cc3)c(C)c2)c1 (single isomer, unassigned) [Example 62, isomer 1, 2-(1-(4-((2′-fluoro-5′-methoxy-3-methylbiphenyl-4-yl)methyl)phenyl)-4-methyl-3-(pyridin-2-yl)-4,5-dihydro-1H-pyrazol-5-yl)acetic acid]
1650 | Cc1ccccc1Oc1ccc(N2N=C(S(C)(=O)=O)CC2CC(=O)O)cc1 (racemic) [Example 5, 2-(3-(methylsulfonyl)-1-(4-(o-tolyloxy)phenyl)-4,5-dihydro-1H-pyrazol-5-yl)acetic acid]
7020 | C[C@@H]1C(C(F)(F)F)=NN(c2ccc(CCCc3cccc(F)c3)cc2)[C@H]1CC(=O)O [Example 72, 2-((4S,5S)-1-(4-(3-(3-fluorophenyl)propyl)phenyl)-4-methyl-3-(trifluoromethyl)-4,5-dihydro-1H-pyrazol-5-yl)acetic acid]
8330 | Cc1cc(-c2ccncc2)ccc1Cc1ccc(N2N=C(C(F)(F)F)[C@@H](C)[C@@H]2CC(=O)O)cc1 [Example 78, 2-((4S,5S)-4-methyl-1-(4-(2-methyl-4-(pyridin-4-yl)benzyl)phenyl)-3-(trifluoromethyl)-4,5-dihydro-1H-pyrazol-5-yl)acetic acid]
330 | COc1cccc(-c2ccc(Cc3ccc(N4N=C(C(F)(F)F)CC4CC(=O)O)cc3)c(C)c2)c1 (single isomer, unassigned) [Example 26, Isomer 1, 2-(1-(4-((3′-methoxy-3-methylbiphenyl-4-yl)methyl)phenyl)-3-(trifluoromethyl)-4,5-dihydro-1H-pyrazol-5-yl)acetic acid]
37 | COc1cccc(-c2ccc(Cc3ccc(N4N=C(C(F)(F)F)[C@@H](C)[C@@H]4CC(=O)O)cc3)c(C)c2)c1 [Example 73]
57 | COc1ccc(F)c(-c2ccc(Cc3ccc(N4N=C(c5cc(C)on5)[C@@H](C)[C@@H]4CC(=O)O)cc3)c(C)c2)c1 (single isomer, unassigned) [Example 69, isomer 1]
220 | COc1ccc(F)c(-c2ccc(Cc3ccc(N4N=C(C(F)(F)F)C(C)(C)C4CC(=O)O)cc3)c(C)c2)c1 (single isomer, unassigned) [Example 50, Isomer 1, 2-(1-(4-((2′-fluoro-5′-methoxy-3-methylbiphenyl-4-yl)methyl)phenyl)-4,4-dimethyl-3-(trifluoromethyl)-4,5-dihydro-1H-pyrazol-5-yl)acetic acid]
6470 | COc1ccc(F)c(-c2ccc(Cc3ccc(N4N=C(c5ccccc5)C(C)C4CC(=O)O)cc3)c(C)c2)c1 (single isomer, unassigned) [Example 59, Isomer 1, 2-(1-(4-((2′-fluoro-5′-methoxy-3-methyl-[1,1′-biphenyl]-4-yl)methyl)phenyl)-4-methyl-3-phenyl-4,5-dihydro-1H-pyrazol-5-yl)acetic acid]
5370 | COc1ncccc1-c1ccc(Cc2ccc(N3N=C(C(F)(F)F)[C@@H](C)[C@@H]3CC(=O)O)cc2)c(C)c1 [Example 77, 2-((4S,5S)-1-(4-(4-(2-methoxypyridin-3-yl)-2-methylbenzyl)phenyl)-4-methyl-3-(trifluoromethyl)-4,5-dihydro-1H-pyrazol-5-yl)acetic acid]
290 | COc1cccc(-c2ccc(Oc3ccc(N4N=C(C(F)(F)F)CC4CC(=O)O)cc3)c(C)c2)c1 (single isomer, unassigned) [Example 9, Isomer 2, 2-(1-(4-(3′-methoxy-3-methylbiphenyl-4-yloxy)phenyl)-3-(trifluoromethyl)-4,5-dihydro-1H-pyrazol-5-yl)acetic acid]
120 | COc1cccc(-c2ccc(Cc3ccc(N4N=C(C(F)(F)F)CC4CC(=O)O)cc3)c(C)c2)c1 (single isomer, unassigned) [Example 26, Isomer 2, 2-(1-(4-((3′-methoxy-3-methylbiphenyl-4-yl)methyl)phenyl)-3-(trifluoromethyl)-4,5-dihydro-1H-pyrazol-5-yl)acetic acid]
580 | COc1ccc(F)c(-c2ccc(Cc3ccc(N4N=C(C(F)(F)F)CC4CC(=O)O)cc3)c(F)c2)c1 (single isomer, unassigned) [Example 19, Isomer 1, 2-(1-(4-((2′,3-difluoro-5′-methoxybiphenyl-4-yl)methyl)phenyl)-3-(trifluoromethyl)-4,5-dihydro-1H-pyrazol-5-yl)acetic acid]
800 | O=C(O)CC1CC(C(F)(F)F)=NN1c1ccc(OCc2ccc(Cl)cc2Cl)cc1 (racemic) [Example 2, 2-(1-(4-(2,4-dichlorobenzyloxy)phenyl)-3-(trifluoromethyl)-4,5-dihydro-1H-pyrazol-5-yl)acetic acid]
90 | COc1ccc(F)c(-c2ccc(Cc3ccc(N4N=C(C(F)(F)F)CC4CC(=O)O)cc3)c(F)c2)c1 (single isomer, unassigned) [Example 19, Isomer 2, 2-(1-(4-((2′,3-difluoro-5′-methoxybiphenyl-4-yl)methyl)phenyl)-3-(trifluoromethyl)-4,5-dihydro-1H-pyrazol-5-yl)acetic acid]
5630 | COc1ccc(F)c(-c2ccc(Cc3ccc(N4N=C(c5ccn(C)n5)C(C)C4CC(=O)O)cc3)c(C)c2)c1 (single isomer, unassigned) [Example 55, Isomer 1, 2-((1-(4-((2′-fluoro-5′-methoxy-3-methyl-[1,1′-biphenyl]-4-yl)methyl)phenyl)-1′,4-dimethyl-4,5-dihydro-1H,1′H-[3,3′-bipyrazol]-5-yl)acetic acid, trans-diastereomer]
180 | N#CC1=NN(c2ccc(Oc3ccccc3Br)cc2)C(CC(=O)O)C1 (racemic) [Example 30, 2-(1-(4-(2-bromophenoxy)phenyl)-3-cyano-4,5-dihydro-1H-pyrazol-5-yl)acetic acid]
15 | COc1ccc(F)c(-c2ccc(Cc3ccc(N4N=C(c5cccc(Cl)c5)[C@@H](C)[C@@H]4CC(=O)O)cc3)c(C)c2)c1 (single isomer, unassigned) [Example 68, isomer 1]
700 | COc1ccc(F)c(-c2ncc(Cc3ccc(N4N=C(C(F)(F)F)[C@@H](C)[C@@H]4CC(=O)O)cc3)c(C)n2)c1 (single isomer, unassigned) [Example 63]
1850 | Cc1ccccc1Oc1ccc(N2N=C(C(F)(F)F)CC2CC(=O)O)cc1 (single isomer, unassigned) [Example 11, Isomer 2, 2-(1-(4-(o-tolyloxy)phenyl)-3-(trifluoromethyl)-4,5-dihydro-1H-pyrazol-5-yl)acetic acid]
1100 | COc1ccc(F)c(-c2ccc(Cc3ccc(N4N=C(C(F)(F)F)C(CO)C4CC(=O)O)cc3)c(C)c2)c1 (single isomer, unassigned) [Example 53, Isomer 2, 2-(1-(4-((2′-fluoro-5′-methoxy-3-methyl-[1,1′-biphenyl]-4-yl)methyl)phenyl)-4-(hydroxymethyl)-3-(trifluoromethyl)-4,5-dihydro-1H-pyrazol-5-yl)acetic acid, trans-diastereomer]
165 | COc1ccc(F)c(-c2ccc(Oc3ccc(N4N=C(C(F)(F)F)CC4CC(=O)O)cc3)c(C)c2)c1 (single isomer, unassigned) [Example 14, Isomer 1, 2-(1-(4-(2′-fluoro-5′-methoxy-3-methylbiphenyl-4-yloxy)phenyl)-3-(trifluoromethyl)-4,5-dihydro-1H-pyrazol-5-yl)acetic acid]
180 | COc1ccc(F)c(-c2cc(C)c(Oc3ccc(N4N=C(C#N)CC4CC(=O)O)cc3)cc2C)c1 (racemic) [Example 35, 2-(3-cyano-1-(4-(2′-fluoro-5′-methoxy-2,5-dimethylbiphenyl-4-yloxy)phenyl)-4,5-dihydro-1H-pyrazol-5-yl)acetic acid]
